{"source": "PubChem BioAssay (NCI)", "assay_in_all_cases": "NCI anticancer screen, dose series, 48 h", "key": {"DU-145 prostate": {"system": "DU-145 prostate"}, "UO-31 renal": {"system": "UO-31 renal"}, "IGROV1 ovarian": {"system": "IGROV1 ovarian"}, "PC-3 prostate": {"system": "PC-3 prostate"}, "A549 NSCLC": {"system": "A549 NSCLC"}, "CAKI-1 renal": {"system": "CAKI-1 renal"}, "SK-MEL-5 melanoma": {"system": "SK-MEL-5 melanoma"}, "MDA-MB-231 breast": {"system": "MDA-MB-231 breast"}, "SK-MEL-2 melanoma": {"system": "SK-MEL-2 melanoma"}, "SF-295 CNS": {"system": "SF-295 CNS"}, "COLO 205 colon": {"system": "COLO 205 colon"}, "NCI/ADR-RES ovarian": {"system": "NCI/ADR-RES ovarian"}, "NCI-H226 lung": {"system": "NCI-H226 lung"}, "T-47D breast": {"system": "T-47D breast"}, "HCC-2998 colon": {"system": "HCC-2998 colon"}, "M14 melanoma": {"system": "M14 melanoma"}, "HS 578T breast": {"system": "HS 578T breast"}, "SF-268 CNS": {"system": "SF-268 CNS"}, "RXF 393 renal": {"system": "RXF 393 renal"}, "OVCAR-4 ovarian": {"system": "OVCAR-4 ovarian"}, "OVCAR-5 ovarian": {"system": "OVCAR-5 ovarian"}, "HL-60(TB) leukemia": {"system": "HL-60(TB) leukemia"}, "SW-620 colon": {"system": "SW-620 colon"}, "HOP-62 NSCLC": {"system": "HOP-62 NSCLC"}, "A498 renal": {"system": "A498 renal"}, "NCI-H460 lung": {"system": "NCI-H460 lung"}, "HOP-92 NSCLC": {"system": "HOP-92 NSCLC"}, "SK-OV-3 ovarian": {"system": "SK-OV-3 ovarian"}, "SF-539 CNS": {"system": "SF-539 CNS"}}, "note": "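Test compounds were applied to cells in 96-well plates for 48 hours at 5 doses. GI50 marks 50% less growth. TGI: concentration producing complete growth inhibition.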", "data": [{"smiles": "CCCn1cnc2c(c1=N)C(c1ccc(Cl)cc1)c1sc3c(C)cccc3c1O2", "note": "(configuration not stated)", "values": [{"measurement": "TGI", "setting": "DU-145 prostate", "result": 5.44, "unit": "µM"}, {"measurement": "GI50", "setting": "UO-31 renal", "result": 612, "unit": "nM"}, {"measurement": "TGI", "setting": "UO-31 renal", "result": 18.2, "unit": "µM"}, {"measurement": "GI50", "setting": "IGROV1 ovarian", "result": 464, "unit": "nM"}, {"measurement": "TGI", "setting": "IGROV1 ovarian", "result": 11.8, "unit": "µM"}, {"measurement": "GI50", "setting": "PC-3 prostate", "result": 454, "unit": "nM"}, {"measurement": "TGI", "setting": "PC-3 prostate", "result": 14.3, "unit": "µM"}, {"measurement": "GI50", "setting": "A549 NSCLC", "result": 530, "unit": "nM"}, {"measurement": "TGI", "setting": "A549 NSCLC", "result": 8.74, "unit": "µM"}, {"measurement": "GI50", "setting": "CAKI-1 renal", "result": 192, "unit": "nM"}, {"measurement": "TGI", "setting": "CAKI-1 renal", "result": 14.9, "unit": "µM"}, {"measurement": "GI50", "setting": "SK-MEL-5 melanoma", "result": 430, "unit": "nM"}, {"measurement": "TGI", "setting": "SK-MEL-5 melanoma", "result": 3.46, "unit": "µM"}, {"measurement": "GI50", "setting": "MDA-MB-231 breast", "result": 774, "unit": "nM"}, {"measurement": "TGI", "setting": "MDA-MB-231 breast", "result": 13.2, "unit": "µM"}, {"measurement": "GI50", "setting": "SK-MEL-2 melanoma", "result": 726, "unit": "nM"}, {"measurement": "TGI", "setting": "SK-MEL-2 melanoma", "result": 16, "unit": "µM"}, {"measurement": "GI50", "setting": "SF-295 CNS", "result": 374, "unit": "nM"}, {"measurement": "TGI", "setting": "SF-295 CNS", "result": 10.5, "unit": "µM"}, {"measurement": "GI50", "setting": "COLO 205 colon", "result": 386, "unit": "nM"}, {"measurement": "TGI", "setting": "COLO 205 colon", "result": 1900, "unit": "nM"}, {"measurement": "GI50", "setting": "NCI/ADR-RES ovarian", "result": 316, "unit": "nM"}, {"measurement": "TGI", "setting": "NCI/ADR-RES ovarian", "result": 2440, "unit": "nM"}, {"measurement": "GI50", "setting": "NCI-H226 lung", "result": 431, "unit": "nM"}, {"measurement": "TGI", "setting": "NCI-H226 lung", "result": 4.08, "unit": "µM"}, {"measurement": "GI50", "setting": "T-47D breast", "result": 522, "unit": "nM"}, {"measurement": "TGI", "setting": "T-47D breast", "result": 24.3, "unit": "µM"}, {"measurement": "GI50", "setting": "HCC-2998 colon", "result": 732, "unit": "nM"}, {"measurement": "TGI", "setting": "HCC-2998 colon", "result": 6.1, "unit": "µM"}, {"measurement": "GI50", "setting": "M14 melanoma", "result": 314, "unit": "nM"}, {"measurement": "TGI", "setting": "M14 melanoma", "result": 3.86, "unit": "µM"}, {"measurement": "GI50", "setting": "HS 578T breast", "result": 352, "unit": "nM"}, {"measurement": "TGI", "setting": "HS 578T breast", "result": 5.47, "unit": "µM"}, {"measurement": "GI50", "setting": "SF-268 CNS", "result": 953, "unit": "nM"}, {"measurement": "TGI", "setting": "SF-268 CNS", "result": 11.1, "unit": "µM"}, {"measurement": "GI50", "setting": "RXF 393 renal", "result": 217, "unit": "nM"}, {"measurement": "TGI", "setting": "RXF 393 renal", "result": 600, "unit": "nM"}, {"measurement": "GI50", "setting": "OVCAR-4 ovarian", "result": 1570, "unit": "nM"}, {"measurement": "TGI", "setting": "OVCAR-4 ovarian", "result": 17.8, "unit": "µM"}, {"measurement": "GI50", "setting": "OVCAR-5 ovarian", "result": 674, "unit": "nM"}, {"measurement": "TGI", "setting": "OVCAR-5 ovarian", "result": 13.1, "unit": "µM"}, {"measurement": "GI50", "setting": "HL-60(TB) leukemia", "result": 346, "unit": "nM"}, {"measurement": "TGI", "setting": "HL-60(TB) leukemia", "result": 1690, "unit": "nM"}, {"measurement": "GI50", "setting": "SW-620 colon", "result": 402, "unit": "nM"}, {"measurement": "TGI", "setting": "SW-620 colon", "result": 11.7, "unit": "µM"}, {"measurement": "GI50", "setting": "HOP-62 NSCLC", "result": 477, "unit": "nM"}, {"measurement": "TGI", "setting": "HOP-62 NSCLC", "result": 10.7, "unit": "µM"}, {"measurement": "GI50", "setting": "A498 renal", "result": 304, "unit": "nM"}, {"measurement": "TGI", "setting": "A498 renal", "result": 1170, "unit": "nM"}, {"measurement": "GI50", "setting": "NCI-H460 lung", "result": 362, "unit": "nM"}, {"measurement": "TGI", "setting": "NCI-H460 lung", "result": 1900, "unit": "nM"}, {"measurement": "GI50", "setting": "HOP-92 NSCLC", "result": 1980, "unit": "nM"}, {"measurement": "TGI", "setting": "HOP-92 NSCLC", "result": 14.5, "unit": "µM"}, {"measurement": "GI50", "setting": "SK-OV-3 ovarian", "result": 680, "unit": "nM"}, {"measurement": "TGI", "setting": "SK-OV-3 ovarian", "result": 19.7, "unit": "µM"}, {"measurement": "GI50", "setting": "SF-539 CNS", "result": 316, "unit": "nM"}, {"measurement": "TGI", "setting": "SF-539 CNS", "result": 1110, "unit": "nM"}]}]}
